# Paper PMC6299481, “Deciphering the Evolution of Cephalosporin Resistance to Ceftolozane-Tazobactam in Pseudomonas aeruginosa” (mBio, 2018)
# Read-outs that look alike come from different tables or passages of the source.
# Key:
# [1] = system: E. coli DH10B pBC SK blaPDC-1; experiment: MIC, MH agar dilution (CLSI); assay type: cell-based; conditions: Escherichia coli, β-lactam alone
# Protocol: (§1) Variant genes were synthesized into the pBC SK (-) vector by Celtek Bioscience (Franklin, TN). Mueller-Hinton (MH) agar-dilution MIC measurements were performed against isogenic transformants producing PDC-3 and nine variants of PDC-3 in pBC SK (-) according to the Clinical and Laboratory Standards Institute (CLSI) guidelines as previously described ([39], [48]). Avibactam, LP-06, and S02030 were tested at a constant 4 µg/ml in combination with various concentrations of ceftazidime. Piperacillin-tazobactam was maintained at a ratio of 8 piperacillin to 1 tazobactam. Ceftolozane-tazobactam was maintained at a ratio of 2 ceftolozane to 1 tazobactam. The MICs are reported as the concentrations at which bacterial growth was no longer observed. All MIC measurements were performed at least three times.
# [2] = system: E. coli DH10B pBC SK blaPDC-3 E221A; experiment: MIC, MH agar dilution (CLSI); assay type: cell-based; conditions: Escherichia coli; β-lactam alone; E. coli DH10B pBC SK blaPDC-3 E221A (Table 2 prints E221)
# Protocol: as §1
# [3] = system: E. coli DH10B pBC SK blaPDC-3 E221G; experiment: MIC, MH agar dilution (CLSI); assay type: cell-based; conditions: Escherichia coli, β-lactam alone
# Protocol: as §1
# [4] = system: E. coli DH10B pBC SK blaPDC-3 G216A; experiment: MIC, MH agar dilution (CLSI); assay type: cell-based; conditions: Escherichia coli; β-lactam alone; E. coli DH10B pBC SK blaPDC-3 G216A (Table 2 prints G216)
# Protocol: as §1
# [5] = system: E. coli DH10B pBC SK blaPDC-3 G216R; experiment: MIC, MH agar dilution (CLSI); assay type: cell-based; conditions: Escherichia coli, β-lactam alone
# Protocol: as §1
# [6] = system: E. coli DH10B pBC SK blaPDC-3 V213A; experiment: MIC, MH agar dilution (CLSI); assay type: cell-based; conditions: Escherichia coli, β-lactam alone
# Protocol: as §1
# [7] = system: E. coli DH10B pBC SK blaPDC-3 V213G; experiment: MIC, MH agar dilution (CLSI); assay type: cell-based; conditions: Escherichia coli, β-lactam alone
# Protocol: as §1
# [8] = system: E. coli DH10B pBC SK blaPDC-3 Y223A; experiment: MIC, MH agar dilution (CLSI); assay type: cell-based; conditions: Escherichia coli, β-lactam alone
# Protocol: as §1
# [9] = system: E. coli DH10B pBC SK blaPDC-3 Y223H; experiment: MIC, MH agar dilution (CLSI); assay type: cell-based; conditions: Escherichia coli, β-lactam alone
# Protocol: as §1
# [10] = system: E. coli DH10B pBC SK blaPDC-3; experiment: MIC, MH agar dilution (CLSI); assay type: cell-based; conditions: Escherichia coli
# Protocol: as §1
# E. coli DH10B pBC SK = experiment: MIC, MH agar dilution (CLSI); assay type: cell-based; conditions: Escherichia coli, DH10BPBCSK, β-lactam alone
# Protocol: as §1
# E. coli DH10B = experiment: MIC, MH agar dilution (CLSI); assay type: cell-based; conditions: Escherichia coli, β-lactam alone
# Protocol: as §1
# P. aeruginosa 18SH = experiment: MIC, MH agar dilution (CLSI); assay type: cell-based; conditions: Pseudomonas aeruginosa, β-lactam alone, control strain expressing PDC-3
# Protocol: as §1
# P. aeruginosa PAO1 = experiment: MIC, MH agar dilution (CLSI); assay type: cell-based; conditions: Pseudomonas aeruginosa; β-lactam alone; P. aeruginosa PAO1, control strain expressing PDC-1
# Protocol: as §1
# [11] = system: E. coli DH10B pBC SK blaPDC-3 E221K; experiment: MIC, MH agar dilution (CLSI); assay type: cell-based, Escherichia coli; conditions: for MIC: Escherichia coli; for fold increase in MIC relative to the wild-type strain: E221K variant strain versus PDC-3 strain, E. coli DH10B
# Protocol: as §1
# [12] = target: T1, E221K variant of PDC-3 β-lactamase (Pseudomonas aeruginosa, UniProt P24735, E247K/T105A); experiment: Steady-state hydrolysis kinetics; assay type: biochemical
# T1 construct: produces the corresponding PDC-3 protein without its signal peptide; made in house; host or cells: E. coli Origami 2 DE3, pET24a (+) blaPDC-3-E221K
# Protocol: (§2) Steady-state kinetic and inhibitor parameters were determined by using an Agilent 8453 diode array spectrophotometer at room temperature as previously described ([20], [43], [49]). Each assay was performed in 10 mM phosphate-buffered saline (PBS) at pH 7.4 at room temperature (RT = ∼25°C) in a quartz cuvette with a 1-cm path length. Measurements were obtained using ceftolozane and ceftazidime. The kinetic parameters, Vmax and Km, were obtained with a nonlinear least-squares fit of the data (Henri Michaelis-Menten, equation 1) using Origin 7.5VR (OriginLab, Northampton, MA).(1) v=Vmax [S]/Km+[S]
# PDC-3 β-lactamase [13] = target: T2, PDC-3 β-lactamase (Pseudomonas aeruginosa, UniProt P24735, T105A); experiment: Competitive inhibition assay with nitrocefin as reporter substrate (Ki app); assay type: biochemical; conditions: for Ki: 150 μM nitrocefin reporter substrate; for fold difference in Ki app between ceftolozane and ceftazidime: ceftolozane Ki app higher than ceftazidime Ki app
# T2 construct: produces the corresponding PDC-3 protein without its signal peptide; made in house; host or cells: E. coli Origami 2 DE3, pET24a (+) blaPDC-3
# Protocol: For competitive inhibition assays used to determine Ki app, 150 μM nitrocefin was used as the reporter substrate with increasing concentrations of ceftazidime or ceftolozane. Initial velocities were plotted against concentrations of ceftazidime or ceftolozane. Ki app obs were determined by dividing the slope by the y intercept. Ki app was calculated by correcting Ki app obs for nitrocefin affinity and concentration (equation 3). (3) Ki app=Ki app obs/[1+([NCF]/Km NCF)
# [14] = system: E. coli DH10B strains expressing PDC-3 variants; experiment: MIC, MH agar dilution (CLSI), variant strains taken together; assay type: cell-based, Escherichia coli; conditions: for MICs when paired with avibactam: oxyimino cephalosporin paired with avibactam
# Protocol: as §1
# PDC-3 β-lactamase [15] = target: T2, PDC-3 β-lactamase; conditions: cited from earlier work; for Km: PDC-3, previously reported value; for kcat: PDC-3, reported value
# PDC-3 β-lactamase [16] = target: T2, PDC-3 β-lactamase; experiment: Steady-state hydrolysis kinetics; assay type: biochemical; conditions: reporter substrate with PDC-3
# Protocol: as §2
# [17] = β-lactam alone, E. coli DH10B pBC SK blaPDC-3, read-out: MIC value
# [18] = β-lactam alone, E. coli DH10B pBC SK blaPDC-3 E221K, read-out: MIC value
# [19] = read-out: MIC value, β-lactam alone, E. coli DH10B pBC SK blaPDC-3
# [20] = substrate hydrolysis by E221K, 10 mM PBS pH 7.4, room temperature
Structure (SMILES),MIC [1],MIC [2],MIC [3],MIC [4],MIC [5],MIC [6],MIC [7],MIC [8],MIC [9],MIC (E. coli DH10B pBC SK),MIC (E. coli DH10B),MIC (P. aeruginosa 18SH),MIC (P. aeruginosa PAO1),"MIC [10, 19]",MIC ([11]; read-out: MIC value),also measured
CC1(C)S[C@@H]2[C@H](NC(=O)[C@H](N)c3ccccc3)C(=O)N2[C@H]1C(=O)O [Ampicillin],256 µg/mL,1020 µg/mL,512 µg/mL,1020 µg/mL,1020 µg/mL,1020 µg/mL,1020 µg/mL,256 µg/mL,512 µg/mL,4 µg/mL,4 µg/mL,4100 µg/mL,2050 µg/mL,–,–,"MIC [10, 17]: 256 µg/mL; MIC [11, 18]: 256 µg/mL"
C[C@H]1[C@H](NC(=O)/C(=N\OC(C)(C)C(=O)O)c2csc(N)n2)C(=O)N1S(=O)(=O)O [Aztreonam],0.5 µg/mL,4 µg/mL,4 µg/mL,8 µg/mL,16 µg/mL,8 µg/mL,8 µg/mL,4 µg/mL,4 µg/mL,0.125 µg/mL,0.125 µg/mL,128 µg/mL,4 µg/mL,1 µg/mL,8 µg/mL,–
CO/N=C(\C(=O)N[C@@H]1C(=O)N2C(C(=O)[O-])=C(C[N+]3(C)CCCC3)CS[C@H]12)c1csc(N)n1 [Cefepime],0.125 µg/mL,0.125 µg/mL,0.125 µg/mL,0.125 µg/mL,0.25 µg/mL,0.125 µg/mL,0.125 µg/mL,0.25 µg/mL,0.125 µg/mL,< 0.06 µg/mL,0.125 µg/mL,128 µg/mL,4 µg/mL,≤ 0.06 µg/mL,0.25 µg/mL,–
CO/N=C(\C(=O)N[C@@H]1C(=O)N2C(C(=O)O)=C(COC(C)=O)CS[C@H]12)c1csc(N)n1 [Cefotaxime],8 µg/mL,16 µg/mL,8 µg/mL,8 µg/mL,16 µg/mL,16 µg/mL,16 µg/mL,16 µg/mL,8 µg/mL,< 0.06 µg/mL,< 0.06 µg/mL,> 256 µg/mL,16 µg/mL,8 µg/mL,4 µg/mL,–
CC(C)(O/N=C(\C(=O)N[C@@H]1C(=O)N2C(C(=O)[O-])=C(C[n+]3ccccc3)CS[C@H]12)c1csc(N)n1)C(=O)O [Ceftazidime],2 µg/mL,8 µg/mL,32 µg/mL,16 µg/mL,32 µg/mL,32 µg/mL,16 µg/mL,32 µg/mL,16 µg/mL,0.25 µg/mL,0.25 µg/mL,64 µg/mL,1 µg/mL,2 µg/mL,64 µg/mL,"fold increase in MIC relative to the wild-type strain [11]: 32 fold; Km [12, 20]: 174 ± 20 µM; Vmax [12, 20]: 0.9 ± 0.1 µM/s; kcat [12, 20]: 9 ± 1 s⁻¹; Ki (PDC-3 β-lactamase [13]): 22 µM; fold difference in Ki app between ceftolozane and ceftazidime (PDC-3 β-lactamase [13]): ~60 fold; MICs when paired with avibactam [14]: ≤ 1 mg/L; Km (PDC-3 β-lactamase [15]; ref 20): 51.7 ± 2.1 µM; Km (PDC-3 β-lactamase [15]; ref 28): 35 µM; kcat (PDC-3 β-lactamase [15]; ref 4): 0.002 s⁻¹; kcat (PDC-3 β-lactamase [15]; ref 28): 0.02 s⁻¹"
Cn1c(N)c(NC(=O)NCCN)c[n+]1CC1=C(C(=O)O)N2C(=O)[C@@H](NC(=O)/C(=N\OC(C)(C)C(=O)[O-])c3nsc(N)n3)[C@H]2SC1 [Ceftolozane],0.5 µg/mL,2 µg/mL,16 µg/mL,2 µg/mL,8 µg/mL,4 µg/mL,4 µg/mL,32 µg/mL,8 µg/mL,0.5 µg/mL,0.5 µg/mL,8 µg/mL,0.5 µg/mL,0.5 µg/mL,64 µg/mL,"MIC ([10]; read-out: ceftolozane MIC, PDC-3 strain, Table 2): 0.5 µM; fold increase in MIC relative to the wild-type strain [11]: 128 fold; MIC ([11]; read-out: ceftolozane MIC): 64 µM; Km [12, 20]: 341 ± 64 µM; Vmax [12, 20]: 1.0 ± 0.1 µM/s; kcat [12, 20]: 10 ± 1 s⁻¹; Ki (PDC-3 β-lactamase [13]): 1300 µM; fold difference in Ki app between ceftolozane and ceftazidime (PDC-3 β-lactamase [13]): 60 fold; MICs when paired with avibactam [14]: ≤ 1 mg/L"
C[C@@H](O)[C@H]1C(=O)N2C(C(=O)O)=C(SCCN=CN)C[C@H]12 [Imipenem],0.25 µg/mL,0.5 µg/mL,0.5 µg/mL,0.5 µg/mL,0.5 µg/mL,0.5 µg/mL,0.5 µg/mL,0.5 µg/mL,0.5 µg/mL,0.25 µg/mL,–,2 µg/mL,2 µg/mL,0.25 µg/mL,0.5 µg/mL,–
CCN1CCN(C(=O)N[C@@H](C(=O)N[C@@H]2C(=O)N3[C@@H]2SC(C)(C)[C@@H]3C(=O)O)c2ccccc2)C(=O)C1=O [Piperacillin],16 µg/mL,128 µg/mL,64 µg/mL,64 µg/mL,16 µg/mL,64 µg/mL,64 µg/mL,16 µg/mL,32 µg/mL,2 µg/mL,2 µg/mL,512 µg/mL,4 µg/mL,–,–,"MIC [10, 17]: 16 µg/mL; MIC [11, 18]: 16 µg/mL"
O=C(Cc1cccs1)N[C@@H]1C(=O)N2C(C(=O)O)=C(/C=C/c3ccc([N+](=O)[O-])cc3[N+](=O)[O-])CS[C@H]12 [nitrocefin],–,–,–,–,–,–,–,–,–,–,–,–,–,–,–,Km ([12]; reporter substrate with E221K): 17 ± 3 µM; Km (PDC-3 β-lactamase [16]): 20 ± 2 µM
C[C@]1(Cn2ccnn2)[C@H](C(=O)O)N2C(=O)C[C@H]2S1(=O)=O [tazobactam],–,–,–,–,–,–,–,–,–,–,–,–,–,–,–,fold attenuation of variant strain MICs compared to single antibiotic ([14]; piperacillin-tazobactam and ceftolozane-tazobactam combinations): 2- to 8 fold
